Data as given in patent US4927922A, “7β-(substituted)amino-3-substituted cephalosporanic acids and esters” (American Cyanamid Company, priority 1988, dated 1990).
Values after ≈ are worked out from the molar mass of the structure shown. Values joined by “and” are separate entries in the source; they are usually repeats but may differ in a detail not shown here. Identical values can stand only once. Like-named read-outs stand apart in the source and are kept apart here.

Columns and labels:
Assay in all cases: in vitro agar dilution test (MIC)
Type in all cases: cell-based
Proteus rettgheri K 77-6 = conditions: Mueller-Hinton agar
Protocol: (§1) The compounds of the present invention are active antibacterial agents as established in the in vitro agar dilution test using Mueller-Hinton agar. The test compounds were dissolved in a mixture of dimethyl sulfoxide and aqueous sodium bicarbonate and applied as 1 ml of drug solution plus 9 ml of agar per plate. The innoculum was a 5 hour TSB shake culture diluted to 10^-2 with Mueller-Hinton broth and applied to the plates with a Steers' Replicator.
(§2) The results of this test on representative compounds of this invention (identified by Example Number) against a variety of microorganisms appear in Tables I and II in terms of minimal inhibitory concentration (MIC) in mcg/ml together with Cefotaxime, Cephalothin and Ampicillin as positive controls.

[1] = tested on: Pseudomonas aeruginosa ATCC 27853; conditions: Mueller-Hinton agar
Protocol: as §1, §2

Staphylococcus Smith = conditions: Mueller-Hinton agar, Table I
Protocol: as §1, §2

Pseudomonas SSC 78-13 = conditions: SSC7813, Mueller-Hinton agar
Protocol: as §1, §2

[2] = tested on: Staphylococcus FU 79-19-2β^+; conditions: Mueller-Hinton agar
Protocol: as §1, §2

Enterococcus OSU 75-1 = conditions: Mueller-Hinton agar
Protocol: as §1, §2

Pseudomonas 12-4-4 = conditions: Mueller-Hinton agar
Protocol: as §1, §2

[3] = tested on: Providencia stuarti SSC 80-78; conditions: SSC8078, Mueller-Hinton agar
Protocol: as §1, §2

Acinetobacter STFD 79-17 = conditions: Mueller-Hinton agar
Protocol: as §1, §2

[4] = tested on: Providencia stuarti K 81-29; conditions: K8129, Mueller-Hinton agar
Protocol: as §1, §2

[5] = tested on: Enterobacter aerogenes STFD 79-14; conditions: Klebsiella aerogenes, STFD7914, Enterobacter aerogenes STFD 79-14; Mueller-Hinton agar
Protocol: as §1, §2

Proteus rettgheri N 76-1 = conditions: Mueller-Hinton agar
Protocol: as §1, §2

Salmonella SSC 79-57 = conditions: SSC7957, Mueller-Hinton agar
Protocol: as §1, §2

[6] = tested on: Enterobacter cloacae K 79-16; conditions: K7916, Enterobacter cloacae K 79-16, Mueller-Hinton agar
Protocol: as §1, §2

Klebsiella pneumoniae AD = conditions: Mueller-Hinton agar, Table I
Protocol: as §1, §2

Acinetobacter K 77-1 = conditions: K771, Acinetobacter K 77-1, Mueller-Hinton agar
Protocol: as §1, §2

[7] = tested on: Escherichia coli ATCC 25922; conditions: ATCC25922, Escherichia coli ATCC 25922, Mueller-Hinton agar, Table I
Protocol: as §1, §2

Klebsiella STFD 79-6 = conditions: STFD796, Klebsiella STFD 79-6, Mueller-Hinton agar
Protocol: as §1, §2

[8] = tested on: Escherichia coli ESS 22-31; conditions: ESS2231, Mueller-Hinton agar
Protocol: as §1, §2

Proteus morganii K 79-25 = conditions: Morganella morganii, K7925, Proteus morganii K 79-25; Mueller-Hinton agar
Protocol: as §1, §2

Serratia TUL 78-15 = conditions: TUL7815, Serratia TUL 78-15, Mueller-Hinton agar
Protocol: as §1, §2

Enterococcus SM 77-15 = conditions: SM7715, Enterococcus SM 77-15, Mueller-Hinton agar
Protocol: as §1, §2

Klebsiella SSC 78-1 = conditions: SSC781, Klebsiella SSC 78-1, Mueller-Hinton agar
Protocol: as §1, §2

[9] = tested on: Staphylococcus ATCC 25923; conditions: ATCC25923, Staphylococcus ATCC 25923, Mueller-Hinton agar, Table I
Protocol: as §1, §2

Escherichia coli 311 = conditions: Escherichia coli, 311, Escherichia coli 311; Mueller-Hinton agar
Protocol: as §1, §2

Serratia QHC 77-2 = conditions: QHC772, Serratia QHC 77-2, Mueller-Hinton agar
Protocol: as §1, §2

[10] = tested on: Staphylococcus SSC 79-18β^-; conditions: Mueller-Hinton agar
Protocol: as §1, §2

[11] = tested on: Salmonella ariz. QHC 77-3; conditions: Mueller-Hinton agar
Protocol: as §1, §2

[12] = tested on: Escherichia coli STFD 79-20; conditions: STFD7920, Escherichia coli STFD 79-20, Mueller-Hinton agar
Protocol: as §1, §2

[13] = tested on: Micrococcus lutea PCI 1001; conditions: PCI1001, Micrococcus lutea PCI 1001, Mueller-Hinton agar
Protocol: as §1, §2

[14] = Pseudomonas aeruginosa, ATCC27853, Pseudomonas aeruginosa ATCC 27853, read-out: MIC
[15] = Enterococcus, OSU751, Enterococcus OSU 75-1, read-out: MIC
[16] = Pseudomonas, 1244, Pseudomonas 12-4-4, read-out: MIC
[17] = Acinetobacter, STFD7917, Acinetobacter STFD 79-17, read-out: MIC

| Structure (SMILES) | MIC [1, 14] [µg/mL] | MIC (Staphylococcus Smith; Staphylococcus, read-out: MIC) [µg/mL] | MIC (Pseudomonas SSC 78-13) [µg/mL] | MIC ([2]; Staphylococcus, read-out: MIC) [µg/mL] | MIC (Enterococcus OSU 75-1; [15]) [µg/mL] | MIC (Pseudomonas 12-4-4; [16]) [µg/mL] | MIC (Acinetobacter STFD 79-17; [17]) [µg/mL] | MIC [5] [µg/mL] | MIC (Proteus rettgheri N 76-1) [µg/mL] | MIC (Salmonella SSC 79-57) [µg/mL] | MIC [6] [µg/mL] | MIC (Klebsiella pneumoniae AD) [µg/mL] | MIC (Acinetobacter K 77-1) [µg/mL] | MIC [7] [µg/mL] | MIC (Klebsiella STFD 79-6) [µg/mL] | MIC [8] [µg/mL] | MIC (Proteus morganii K 79-25) [µg/mL] | MIC (Serratia TUL 78-15) [µg/mL] | MIC (Enterococcus SM 77-15) [µg/mL] | MIC (Klebsiella SSC 78-1) [µg/mL] | other results |
| --- | --- | --- | --- | --- | --- | --- | --- | --- | --- | --- | --- | --- | --- | --- | --- | --- | --- | --- | --- | --- | --- |
| CO/N=C(\C(=O)N[C@@H]1C(=O)N2C(C(=O)O)=C(COC(C)=O)CS[C@H]12)c1csc(N)n1 [Cefotaxime, 3-[(acetyloxy)methyl]-7β-[[(2-amino-4-thiazolyl)(methoxyimino)acetyl]amino]-8-oxo-5-thia-1-azabicyclo[4.2.0]oct-2-ene-2-carboxylic acid, reference compound] | 16 (≈ 35.1 µM) | 1 (≈ 2.2 µM) | 32 (≈ 70.3 µM) | 4 (≈ 8.78 µM) | 128 (≈ 281 µM) | 16 (≈ 35.1 µM) | 8 (≈ 17.6 µM) | 0.03 (≈ 0.0659 µM) | ≤ 0.015 | 0.25 (≈ 0.549 µM) |  |  |  |  |  |  |  |  |  |  | MIC (Proteus rettgheri K 77-6): ≤ 0.06 µg/mL; MIC ([1]; Pseudomonas aeruginosa ATCC 27853): 32 µg/mL (≈ 70.3 µM); MIC (Staphylococcus Smith): 2 µg/mL (≈ 4.39 µM); MIC [2]: 8 µg/mL (≈ 17.6 µM); MIC (Enterococcus OSU 75-1; Enterococcus OSU 75-1): 64 µg/mL and > 128 µg/mL; MIC (Pseudomonas 12-4-4; Pseudomonas 12-4-4): 8 µg/mL (≈ 17.6 µM); MIC [3]: ≤ 0.06 µg/mL; MIC (Acinetobacter STFD 79-17; Acinetobacter STFD 79-17): 16 µg/mL (≈ 35.1 µM); MIC [4]: 0.25 µg/mL (≈ 0.549 µM) |
| CO/N=C(\C(=O)N[C@@H]1C(=O)N2C(C(=O)O)=C(CSc3nnsc3-c3ccccc3)CS[C@H]12)c1csc(N)n1 [Example 1, (Z)-7-[[(2-Amino-4-thiazolyl)(methoxyimino)acetyl]amino]-8-oxo-3-[[(5-phenyl-1,2,3-thiadiazol-4-yl)thio]mehtyl]-5-thia-1-azabicyclo[4.2.0]oct-2-ene-2-carboxylic acid] | 128 (≈ 217 µM) | 1 (≈ 1.7 µM) | 128 (≈ 217 µM) | 4 (≈ 6.78 µM) | 128 (≈ 217 µM) | > 128 | 16 (≈ 27.1 µM) | 1 (≈ 1.7 µM) | ≤ 0.015 | 4 (≈ 6.78 µM) | 4 (≈ 6.78 µM) | 0.25 (≈ 0.424 µM) | 4 (≈ 6.78 µM) | 0.12 (≈ 0.203 µM) | 0.5 (≈ 0.848 µM) | ≤ 0.015 | 0.5 (≈ 0.848 µM) | 8 (≈ 13.6 µM) | 64 (≈ 109 µM) | 0.5 (≈ 0.848 µM) | MIC [9]: 2 µg/mL (≈ 3.39 µM); MIC (Escherichia coli 311): 0.5 µg/mL (≈ 0.848 µM); MIC (Serratia QHC 77-2): 8 µg/mL (≈ 13.6 µM); MIC [10]: 1 µg/mL (≈ 1.7 µM); MIC [11]: 1 µg/mL (≈ 1.7 µM); MIC [12]: 0.5 µg/mL (≈ 0.848 µM) |
| CO/N=C(\C(=O)N[C@@H]1C(=O)N2C(C(=O)O)=C(CSc3nnsc3-c3ccc(C(C)(C)C)cc3)CS[C@H]12)c1csc(N)n1 [Example 2, (Z)-7-[[(2-Amino-4-thiazolyl)(methoxyimino)acetyl]amino]-3-[[[5-[4-(1,1-dimethylethyl)phenyl]-1,2,3-thiadiazol-4-yl]thio]methyl]-8-oxo-5-thia-1-azabicyclo-[4.2.0]oct-2-ene-2-carboxylic acid] | > 256 | 8 (≈ 12.4 µM) | > 256 | 32 (≈ 49.5 µM) | 256 (≈ 396 µM) | > 256 | 128 (≈ 198 µM) | 0.5 (≈ 0.774 µM) | ≤ 0.03 | 4 (≈ 6.19 µM) | 2 (≈ 3.1 µM) | 0.06 (≈ 0.0929 µM) | 16 (≈ 24.8 µM) | 0.06 (≈ 0.0929 µM) | 0.06 (≈ 0.0929 µM) | ≤ 0.03 | 0.5 (≈ 0.774 µM) | 32 (≈ 49.5 µM) | 256 (≈ 396 µM) | 0.06 (≈ 0.0929 µM) | MIC [13]: 0.06 µg/mL (≈ 0.0929 µM); MIC [9]: 16 µg/mL (≈ 24.8 µM); MIC (Escherichia coli 311): 0.25 µg/mL (≈ 0.387 µM); MIC (Serratia QHC 77-2): 32 µg/mL (≈ 49.5 µM); MIC [10]: 8 µg/mL (≈ 12.4 µM); MIC [11]: 1 µg/mL (≈ 1.55 µM); MIC [12]: 0.25 µg/mL (≈ 0.387 µM) |
| CO/N=C(\C(=O)N[C@@H]1C(=O)N2C(C(=O)O)=C(CSc3nnsc3C(C)(C)C)CS[C@H]12)c1csc(N)n1 [Example 6, (Z)-7-[[(2-Amino-4-thiazolyl)(methoxyimino)acetyl]amino]-3-[[[5-(1,1-dimethylethyl)-1,2,3-thiadiazol-4-yl]thio]methyl]-8-oxo-5-thia-1-azabicyclo[4.2.0]oct-2-ene-2-carboxylic acid] | 128 (≈ 225 µM) | 2 (≈ 3.51 µM) | 64 (≈ 112 µM) | 16 (≈ 28.1 µM) | 256 (≈ 449 µM) | 64 (≈ 112 µM) | 32 (≈ 56.2 µM) | 4 (≈ 7.02 µM) |  | 8 (≈ 14 µM) | 1 (≈ 1.76 µM) | 0.25 (≈ 0.439 µM) | 32 (≈ 56.2 µM) | 2 (≈ 3.51 µM) | 2 (≈ 3.51 µM) | 0.5 (≈ 0.878 µM) | 16 (≈ 28.1 µM) | 8 (≈ 14 µM) | 128 (≈ 225 µM) | 1 (≈ 1.76 µM) | MIC (Proteus rettgheri K 77-6): ≤ 0.12 µg/mL; MIC [13]: 0.25 µg/mL (≈ 0.439 µM); MIC [9]: 4 µg/mL (≈ 7.02 µM); MIC (Escherichia coli 311): 0.5 µg/mL (≈ 0.878 µM); MIC (Serratia QHC 77-2): 8 µg/mL (≈ 14 µM); MIC [3]: 5 µg/mL (≈ 8.78 µM); MIC [4]: 1 µg/mL (≈ 1.76 µM); MIC [10]: 1 µg/mL (≈ 1.76 µM); MIC [11]: 2 µg/mL (≈ 3.51 µM); MIC [12]: 0.5 µg/mL (≈ 0.878 µM) |
